Assay results reported in ChEMBL document CHEMBL3507680, “University of Dundee, Gates Library screen for HepG2 cell viability”.

Assay: Human HepG2 cell viability assay in 384 well format
Type: toxicity, cell-based
Parameters: dose 125 nL, time 70.5 hour; cytotoxicity at 70.5 h: concentration not given beside the values
Conditions: HepG2 cells, read-out: Inhibition

SMILES | cytotoxicity at 70.5 h [%]
c1csc(CN2CCCC3(COCCN(Cc4c[nH]nn4)C3)C2)c1 (stereo not drawn) | 1.75
O=C(NCCn1cccc1)C1CCC(=O)N(C2CCCC2)C1 (stereo not drawn) | -8.05
CCn1cnnc1CNC(=O)C1CCCN(Cc2cccc(F)c2)C1 (stereo not drawn) | -14.4
COc1cccc(CC(C)NC(=O)NCc2ccn(C)c2)c1 (stereo not drawn) | 0.709
Cc1cc(C(=O)Cn2cnnc2[S+](C)[O-])cc(C)c1F (stereo not drawn) | 33.6
Cn1cc(I)c(C(=O)NC2CCCC2)n1 | 10.4
CN(C)C(=O)[C@H]1C[C@H]2OCC[C@H]2N(Cc2ccc3ccccc3n2)C1 | 17.2
Cn1cccc1C(=O)N[C@@H]1CN(Cc2ccsc2)[C@@H]2COC[C@@H]21 | -10.2
Cc1cccc2c1nc(CCO)n2-c1ccc(C(=O)N2CCOCC2)o1 | -1.12
COc1ccnc(N2CCN(C(=O)c3cscn3)CC2)n1 | -2.19
Cc1cc(CNc2ccc(C(F)(F)F)cc2)no1 | -7.03
COCC(=O)N1CCc2[nH]nc(-c3ccc4c(c3)OCO4)c2C1 | -3.34
CC(O)CN1CCN(C(=O)c2ccc(N3CCCC3)nn2)CC1 (stereo not drawn) | 1.72
COCc1cn(CC2CCN(Cc3c(C)[nH]c4ccccc34)CC2)nn1 | -7.19
Nc1ccnc(N2CCC(c3nccn3CC3CC3)CC2)n1 | 17.6
Cn1nc(CNC(=O)C2COc3ccccc3O2)cc1C1CC1 (stereo not drawn) | 6.17
Cc1ccc(O)c(CN(CCCn2ccnc2)Cc2ccc(C)s2)c1 | 0.701
CCNS(=O)(=O)c1ccc(C)c(C(=O)N(C)Cc2ccccc2C)c1 | 2.99
COc1ccc(S(=O)(=O)N2C[C@H](OC)[C@]3(CCCO3)C2)cc1 | -16.2
CSc1ccc(NC(=O)NCC(O)C(C)C)cc1F (stereo not drawn) | 4.17
COCc1cccc(C(=O)N2C[C@H]3CC[C@@H]2CN(Cc2cscn2)C3)n1 | 34.5
CC1(C)CN(Cc2nnc(-c3cccnc3)o2)CC[C@]1(C)O | 8.67
Cc1cc(NCCc2nc(C)cs2)nc(-c2cccnc2)n1 | -9.72

SMILES | cytotoxicity at 70.5 h [%]
CCN(Cc1cnn(CC)c1)Cc1c(Cl)cncc1Cl | -2.13
Cc1ncsc1CN1CC[C@H]2OCC[C@@]2(C(=O)N2CCOCC2)C1 | -4.06
Cc1ccsc1CNCCCOc1ccccn1 | 1.65
COc1c(C)cnc(CN2CCn3c(C)nnc3C2)c1C | -3.41
CCn1ccnc1CN1CCCN(C(=O)c2cccn2C)CC1 | 23.9
CS(=O)(=O)N1CC2(CCCN(CC3CC3)C2)Cc2ccccc21 (stereo not drawn) | -3.95
Cc1ccccc1CC(=O)N1C[C@@H](O)[C@H](N2CCOCC2)C1 | 3.85
N[C@@H]1c2ccccc2C2(CCN(C(=O)c3ccc(CO)o3)CC2)[C@H]1O | -5.57
CNC(=O)C(CCSC)NC(=O)c1ccc2ccccc2n1 (stereo not drawn) | -11
NCCC(=O)NCC1(O)CCCN(c2ccnc3cccnc23)C1 (stereo not drawn) | -3.53
CCN(C(C)c1cccc(O)c1)S(=O)(=O)c1cccnc1 (stereo not drawn) | 5.84
CCCC(=O)N(C)CC(=O)Nc1ccc(Br)cn1 | -2.34
COCCN1CCN(Cc2cccc(OCC(N)=O)c2)CC1C (stereo not drawn) | 10.7
CCCC(=O)N1CCC2(CC1)OCCO2 | -2.35
CCS(=O)(=O)N1C[C@H](c2nc(C)no2)C[C@H]2OCC[C@H]21 | 5.21
Cc1ccccc1NCc1nc2n(n1)CCCCC2 | 0.338
CCc1nccn1C1CCCN(C(=O)Cc2cn3ccsc3n2)C1 (stereo not drawn) | -11.7
Fc1cccc(-c2nccnc2C2CCCNC2)c1 (stereo not drawn) | -11.7
O=S(=O)(c1c(N2CCCC2)ccc2nonc12)N1CCCC1 | -1.28
c1csc(CN2CCOCC3(CCN(C4CCOCC4)C3)C2)c1 (stereo not drawn) | -16.8
O=C1CN(C(=O)c2cc(Cl)ccc2F)c2ccccc2N1 | 37.1
CC(C)(C)c1cc(NC(=O)CN2CCn3c(nnc3C3CC3)C2)on1 | 3.06
CN(CCOc1cccc(S(C)(=O)=O)c1)c1ccccc1 | -2.26

SMILES | cytotoxicity at 70.5 h [%]
COCCn1ccc2c(C(=O)Nc3nc4c(s3)CCC4)cccc21 | -1.37
CN1CC(c2cc(O)nc(NCc3ccccc3Cl)n2)CC1=O (stereo not drawn) | -2.82
O=C1c2cc(Br)cc(Br)c2OCC1(CN1CCCC1)CN1CCCC1 | -1.34
Cn1cc(Cl)cc1C(=O)N1CCN(Cc2ccsc2)CC1 | 0.559
CC(C)(C)n1ncc2c(=O)n(CC(=O)NCCc3ccccc3)cnc21 | -13.5
CCc1cnc(NC(=O)NC2CCN(C)CC2)s1 | 10.3
CC(=O)NCC1CCCN(C(=O)Cc2c(C)noc2C)C1 (stereo not drawn) | -22.9
Cn1cc(CN2CC[C@H]3OCC[C@@H](C(=O)NCc4ccco4)[C@@H]3C2)cn1 | -8
CC(C)(C)c1ccn(C2(C(=O)O)CCN(c3ccncc3F)CC2)n1 | -8.89
NS(=O)(=O)CCNC(=O)c1cc2ccccc2nc1N1CCCC1 | -5.72
CCC1CCC(CNC(=O)c2c[nH]c(=O)c(Cl)c2)CC1 (stereo not drawn) | -9.94
CN(C)c1ncc(-c2ccc(NC(=O)[C@@H]3CCCCN3)cc2)cn1 | -0.758
COc1ccc(CNC(=O)N(Cc2ccc(F)cc2F)C2CC2)cn1 | 18.5
CCc1ccc(NC(=O)c2cnc(N3CCN(C)CC3)nc2C)cc1 | 36.8
Cc1nnc2n1CCN(CCOc1ccc(C(C)(C)C)cc1)C2 | -4.66
Cc1ccccc1-c1cc(C(=O)N2CCCC(n3ccnc3C)C2)[nH]n1 (stereo not drawn) | 13.3
CN(C)C1COC2(CCN(Cc3nccs3)CC2)C1 (stereo not drawn) | -4.71
O=C(NC[C@H]1OC[C@@H](NCc2cccs2)[C@@H]1O)N1CCOCC1 | 8.48
O=C(Nc1cnc2n1CCCC2)C1CCCN1C1CCNCC1 (stereo not drawn) | -15
CN(c1ccc(CNc2ccc(Cl)cn2)cc1)S(C)(=O)=O | -4.71
CN1CC(=O)N(c2cccc(F)c2)CC12CCN(Cc1cnn(C)c1)C2 (stereo not drawn) | 4.08
O=C(CNC(Cn1cccn1)c1ccccc1)Nc1cnccn1 (stereo not drawn) | 13
O=C(C1CCOCC1)N1C[C@H]2C[C@H](OCc3ccccc3)C[C@H]2C1 | -3.41

SMILES | cytotoxicity at 70.5 h [%]
CN(C(=O)Cc1ccc(F)cc1)C1CCN(c2ccccn2)CC1 | -1.36
CNC(=O)Cn1c(CO)cnc1SCc1ccccc1Cl | 16.9
CC(C)NC[C@H]1COCc2nc3cccnc3n21 | -8.17
Cc1nc(C)c(CNC[C@@]2(COc3cccnc3)C[C@@H](O)[C@@H](O)C2)s1 | -4.67
O=C(c1ccccc1)C1CCN(c2cncc(-n3cccn3)n2)CC1 | 1.36
CN1CC(=O)N(c2ccsc2)CC12CCN(C(=O)c1cccn1C)C2 (stereo not drawn) | -5.46
Cc1cc(CN2CCN(C(=O)NCc3cccs3)CC2)on1 | -14.6
CCn1cc2c(n1)C(COCC1CC1)CN(C(=O)c1ccco1)C2 (stereo not drawn) | -10.5
CC(C)(C)C(=O)NS(=O)(=O)c1ccc(C#N)cc1C(F)(F)F | -14.8
CCN1CCN(c2ncc(-c3cc(C)no3)c(-c3ccco3)n2)CC1 | -3.95
CCN1C[C@H]2C3(CCN(C(C)=O)CC3)CC[C@@]2(C(=O)N(C)C)C1 | -8.84
Cc1cnn(CC2CCCN2c2ncnc3c2CCC3)c1 (stereo not drawn) | 13.3
Cc1cnn(CC2CN(Cc3csc(C4CCCC4)n3)CCO2)c1 (stereo not drawn) | -0.185
O=C(NC1CCCc2nc(N3CCCCC3)ncc21)C1CCCC1 (stereo not drawn) | -4.53
Cc1ccc2nc(CN(Cc3ccc(C#N)cc3)C(C)C)cc(=O)n2c1 | 20.2
Cc1nc(-c2ccc(S(=O)(=O)N3CCC4(CC3)OCCO4)cc2)co1 | -7.29
Cc1ccc(CNc2ccccc2SCCC(N)=O)s1 | -99.2
CC(C)(CNc1ccc2ccc(F)cc2n1)NS(C)(=O)=O | -7.19
Cc1ccc2cc(C(=O)N3CCCN(C)CC3)ccc2n1 | -2.19
COCC1CN(C(=O)c2ccoc2)Cc2cnn(CC3CCOCC3)c21 (stereo not drawn) | -9.06
COC(=O)N1CC(C)=C(C)CN1C(=O)Nc1ccc(Cl)c(Cl)c1 | 4.31
COc1cccc(OC2CN(C(=O)CCn3cnnn3)C2)c1 | -10.5
Fc1ccc(CN2Cc3nccn3CC(CN3CCOCC3)C2)cc1 (stereo not drawn) | -8.01

SMILES | cytotoxicity at 70.5 h [%]
Cc1nc(C(=O)N2CCN(S(C)(=O)=O)CC2)c(-c2ccccc2Cl)s1 | 16
O=C(c1ncccn1)N1C[C@H]2CCC[C@@]2(COCc2ccncc2)C1 | 9.21
Cc1nc(Nc2ncccn2)cc(C2CCCN2C(C)C)n1 (stereo not drawn) | -14
COc1ccc(CC(=O)N2CCCC2Cn2cc(C)cn2)c(OC)c1 (stereo not drawn) | -0.475
CC(C)N(C(=O)Cn1nc2n(c1=O)CCCCC2)C1CCC1 | -9.98
Fc1ccc(-c2nnc(CN3CCCC3Cn3cccn3)o2)cc1 (stereo not drawn) | -19.8
CC(C(=O)N1CCn2cncc2C1)N1CCCC1 (stereo not drawn) | -0.791
Cc1ccccc1CCC1CCCN(Cc2nnc(-c3ccco3)o2)C1 (stereo not drawn) | -12.7
N#CCC(=O)NCc1nnc2n1CCN(Cc1nccs1)C2 | -4.61
Cc1cc2c(cc1C)OC(C(=O)NCCNC(=O)C1CCCC1)C2 (stereo not drawn) | -6.43
CCC(O)CN1CCN(C(=O)Cc2ccc(C)nc2)CC1 (stereo not drawn) | -0.788
Cn1c(CCC(=O)N2CCCC3(CNC(=O)O3)C2)nc2cccnc21 (stereo not drawn) | -14.8
O=C1O[C@@H]2CN(c3ncccn3)C[C@@H]2N1CCCc1ccc(F)cc1 | -7.46
O=C(NCCn1ccnc1)c1csc(Br)c1 | 16.5
CN1C[C@H]2CN(C(=O)c3ccc4c(c3)OCO4)CCN2C1=O | -8.59
NC(=O)NCC(=O)N1CCCC(c2nccn2Cc2ccncc2)C1 (stereo not drawn) | -1.01
O=C(Nc1ccccc1N1CCOC1=O)N1CCc2sccc2C1 | -8.21
Cc1ncc(C)c(N2CCC(Cc3ccc(Cl)cc3)(C(=O)O)CC2)n1 | -9.85
CCn1c(C)cc(C(=O)N2CCC(NC(=O)c3ccc(C)o3)CC2)c1C | -89.5
CCN(CCS(=O)(=O)CC)CC1CCCO1 (stereo not drawn) | -3.45
CC(Cn1cccn1)NCC(=O)NC1(C#N)CCCCC1 (stereo not drawn) | 21.3
